Data taken from ChEMBL document CHEMBL1201862, “PubChem BioAssay data set” (2004).
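Briefly, cells in 96-well plates were exposed to five compound concentrations for 48 h, and endpoints were estimated by linear interpolation. Abbreviation: GI50, concentration required for 50% inhibition of growth.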 Calls of active or inactive are those of the source. No stated cut-off is given here; in the data, active = GI50 up to about 1.1 µM and inactive = higher.

Assays:
Experiment in all cases: growth of human tumour cells (NCI), 48 h
HOP-92 = test system: HOP-92
OVCAR-5 = test system: OVCAR-5
OVCAR-4 = test system: OVCAR-4
SNB-75 = test system: SNB-75
A498 = test system: A498
DMS-114 = test system: DMS-114
HT-29 = test system: HT-29
CAKI-1 = test system: CAKI-1
LOX IMVI = test system: LOX IMVI
UO-31 = test system: UO-31
SF-268 = test system: SF-268
SK-MEL-5 = test system: SK-MEL-5
NCI-H226 = test system: NCI-H226

With `COc1ccc(-c2nc3c(nc2-c2ccc(OC)cc2)N(C)S(=O)(=O)N=C3N)cc1` the GI50 (HOP-92) was 13.6 µM (inactive), the GI50 (OVCAR-5) was 25.2 µM (inactive) and the GI50 (OVCAR-4) was 14.1 µM (inactive). For the same compound, the GI50 (SNB-75) was 24 µM (inactive), the GI50 (A498) was 22.5 µM (inactive) and the GI50 (DMS-114) was 17.3 µM (inactive). For the same compound, the GI50 (HT-29) was 25.4 µM (inactive), the GI50 (CAKI-1) was 23.2 µM (inactive) and the GI50 (LOX IMVI) was 15.5 µM (inactive). For the same compound, the GI50 (UO-31) was 13.6 µM (inactive), the GI50 (SF-268) was 24.3 µM (inactive) and the GI50 (SK-MEL-5) was 11.6 µM (inactive).
`CCOc1ccc2c(c1)[n+]([O-])c(C(N)=O)c(N)[n+]2[O-]` was tested, and the GI50 (NCI-H226) was > 100 µM (inactive), the GI50 (HOP-92) was > 100 µM (inactive) and the GI50 (OVCAR-5) was > 100 µM (inactive). For the same compound, the GI50 (OVCAR-4) was > 100 µM (inactive), the GI50 (SNB-75) was > 100 µM (inactive) and the GI50 (A498) was > 100 µM (inactive). The GI50 (DMS-114) was > 100 µM (inactive), the GI50 (HT-29) was > 100 µM (inactive) and the GI50 (CAKI-1) was > 100 µM (inactive). The GI50 (UO-31) was > 100 µM (inactive), the GI50 (SF-268) was > 100 µM (inactive) and the GI50 (SK-MEL-5) was > 100 µM (inactive).
`COc1c(OC2OC(CO)C(O)C(O)C2O)cc2c(c1OC)-c1ccc(OC)c(=O)cc1[C@@H](NC(C)=O)CC2` (stereo not given in full) was tested, and the GI50 (NCI-H226) was > 100 µM (inactive), the GI50 (HOP-92) was 45.3 µM (inactive) and the GI50 (OVCAR-5) was > 100 µM (inactive). The GI50 (OVCAR-4) was > 100 µM (inactive), the GI50 (SNB-75) was 25.8 µM (inactive) and the GI50 (A498) was > 100 µM (inactive). The GI50 (DMS-114) was 44.7 µM (inactive), the GI50 (HT-29) was > 100 µM (inactive) and the GI50 (CAKI-1) was > 100 µM (inactive). For the same compound, the GI50 (LOX IMVI) was > 100 µM (inactive), the GI50 (UO-31) was > 100 µM (inactive) and the GI50 (SF-268) was > 56.2 µM (inactive). For the same compound, the GI50 (SK-MEL-5) was 35.2 µM (inactive).
`O=[N+]([O-])c1cccc(S(=O)(=O)N/N=C/c2cc(I)cc([N+](=O)[O-])c2O)c1` was tested, and the GI50 (HOP-92) was 16.8 µM (inactive), the GI50 (OVCAR-5) was 40.1 µM (inactive) and the GI50 (OVCAR-4) was 27.9 µM (inactive). For the same compound, the GI50 (SNB-75) was 22.4 µM (inactive), the GI50 (A498) was > 100 µM (inactive) and the GI50 (DMS-114) was 21.6 µM (inactive). The GI50 (HT-29) was 26.7 µM (inactive), the GI50 (CAKI-1) was 20.3 µM (inactive) and the GI50 (LOX IMVI) was 27.9 µM (inactive). For the same compound, the GI50 (UO-31) was 26.1 µM (inactive), the GI50 (SF-268) was 30.1 µM (inactive) and the GI50 (SK-MEL-5) was 22.7 µM (inactive).
`COC(=O)CCC(=O)CC(=O)C(=O)Nc1c(Cl)cc([N+](=O)[O-])cc1Cl` was tested, and the GI50 (NCI-H226) was > 100 µM (inactive), the GI50 (HOP-92) was 38.7 µM (inactive) and the GI50 (OVCAR-5) was > 100 µM (inactive). The GI50 (OVCAR-4) was > 100 µM (inactive), the GI50 (SNB-75) was 47.2 µM (inactive) and the GI50 (A498) was 57.3 µM (inactive). The GI50 (DMS-114) was 23.5 µM (inactive), the GI50 (HT-29) was > 100 µM (inactive) and the GI50 (CAKI-1) was 61.8 µM (inactive). The GI50 (LOX IMVI) was 52.1 µM (inactive), the GI50 (UO-31) was > 100 µM (inactive) and the GI50 (SF-268) was > 100 µM (inactive). For the same compound, the GI50 (SK-MEL-5) was > 100 µM (inactive).
With `CN(C(=O)C12C3C4C5C3C1(C(=O)O)C5C42)C(C)(C)C` (stereo not given) the GI50 (NCI-H226) was > 100 µM (inactive), the GI50 (HOP-92) was > 100 µM (inactive) and the GI50 (OVCAR-5) was > 100 µM (inactive). The GI50 (OVCAR-4) was > 100 µM (inactive), the GI50 (SNB-75) was > 100 µM (inactive) and the GI50 (A498) was > 100 µM (inactive). For the same compound, the GI50 (DMS-114) was 28.9 µM (inactive), the GI50 (HT-29) was 78.5 µM (inactive) and the GI50 (CAKI-1) was > 100 µM (inactive). For the same compound, the GI50 (LOX IMVI) was 26.1 µM (inactive), the GI50 (UO-31) was > 100 µM (inactive) and the GI50 (SF-268) was > 100 µM (inactive). The GI50 (SK-MEL-5) was > 100 µM (inactive).
For `CN(C)/N=N/c1ccc(S(N)(=O)=O)cc1`, the GI50 (NCI-H226) was > 100 µM (inactive), the GI50 (HOP-92) was > 100 µM (inactive) and the GI50 (OVCAR-5) was > 100 µM (inactive). For the same compound, the GI50 (OVCAR-4) was > 100 µM (inactive), the GI50 (SNB-75) was 92.9 µM (inactive) and the GI50 (A498) was > 100 µM (inactive). For the same compound, the GI50 (DMS-114) was > 100 µM (inactive), the GI50 (HT-29) was > 100 µM (inactive) and the GI50 (CAKI-1) was > 100 µM (inactive). The GI50 (LOX IMVI) was > 100 µM (inactive), the GI50 (UO-31) was > 100 µM (inactive) and the GI50 (SF-268) was > 100 µM (inactive). For the same compound, the GI50 (SK-MEL-5) was > 100 µM (inactive).
In the case of `Cc1ccccc1C(C#N)/C(=N/NC(=O)c1cc2ccccc2cc1O)C(=O)Nc1cccc(Cl)c1` (stereo not given), the GI50 (NCI-H226) is reported as 18.5 µM (inactive), the GI50 (HOP-92) is reported as 26.4 µM (inactive) and the GI50 (OVCAR-5) is reported as 13.4 µM (inactive). The GI50 (OVCAR-4) was 21.6 µM (inactive), the GI50 (SNB-75) was 6.24 µM (inactive) and the GI50 (A498) was 41.4 µM (inactive). For the same compound, the GI50 (DMS-114) was 17.2 µM (inactive), the GI50 (HT-29) was 42.1 µM (inactive) and the GI50 (CAKI-1) was 19.8 µM (inactive). For the same compound, the GI50 (UO-31) was 3.13 µM (inactive), the GI50 (SF-268) was 7.69 µM (inactive) and the GI50 (SK-MEL-5) was 8.38 µM (inactive).
With `C[n+]1c2ccccc2c(CNCC(=O)O)c2ccccc21` the GI50 (NCI-H226) was 3.3 µM (inactive), the GI50 (HOP-92) was 0.929 µM (active) and the GI50 (OVCAR-5) was 15.2 µM (inactive). For the same compound, the GI50 (OVCAR-4) was 12.6 µM (inactive), the GI50 (SNB-75) was 8.41 µM (inactive) and the GI50 (A498) was 2.61 µM (inactive). For the same compound, the GI50 (DMS-114) was 2.13 µM (inactive), the GI50 (HT-29) was 0.711 µM (active) and the GI50 (CAKI-1) was 0.406 µM (active). For the same compound, the GI50 (UO-31) was 10.9 µM (inactive), the GI50 (SF-268) was 0.459 µM (active) and the GI50 (SK-MEL-5) was 3.98 µM (inactive).
With `O=c1c(-c2ccccc2)c2oc(c1-c1ccccc1)CSCc1cccc(c1)CSC2` the GI50 (NCI-H226) was 56.4 µM (inactive), the GI50 (HOP-92) was 34.3 µM (inactive) and the GI50 (OVCAR-5) was > 100 µM (inactive). For the same compound, the GI50 (OVCAR-4) was 51.9 µM (inactive), the GI50 (SNB-75) was 15.3 µM (inactive) and the GI50 (A498) was 21.8 µM (inactive). For the same compound, the GI50 (DMS-114) was 36.9 µM (inactive), the GI50 (HT-29) was 51.9 µM (inactive) and the GI50 (CAKI-1) was 34.2 µM (inactive). For the same compound, the GI50 (LOX IMVI) was 32.9 µM (inactive), the GI50 (UO-31) was 32.1 µM (inactive) and the GI50 (SF-268) was 30.5 µM (inactive). The GI50 (SK-MEL-5) was 54.2 µM (inactive).
